IC50 data for 26 molecules are collected here from US9598446B2, “Amino compounds for treatment of complement mediated disorders” (priority 2014, dated 2017).

Like-named read-outs stand apart in the source and are kept apart here.

In the test the target is Human factor D (Homo sapiens (Human), UniProt P00746). Briefly: Human Factor D Assay. It is filed as biochemical.
Setting [1] is: human factor D 80 nM, substrate Z-L-Lys-SBz1 and DTNB 100 μM each, pH 7.5, read-out: IC50.

Chain of Human factor D (P00746 26-253): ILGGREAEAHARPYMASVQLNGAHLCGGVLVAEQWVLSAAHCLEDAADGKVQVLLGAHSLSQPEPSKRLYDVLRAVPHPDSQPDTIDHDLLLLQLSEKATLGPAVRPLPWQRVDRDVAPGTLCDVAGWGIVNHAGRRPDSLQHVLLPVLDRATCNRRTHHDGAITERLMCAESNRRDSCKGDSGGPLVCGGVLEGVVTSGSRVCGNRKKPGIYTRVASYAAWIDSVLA
Protocol: Human factor D (purified from human serum, Complement Technology, Inc.) at 80 nM final concentration is incubated with test compound at various concentrations for 5 minutes at room temperature in 50 mM Tris, 1M NaCl, pH 7.5. A synthetic substrate Z-L-Lys-SBz1 and DTNB (Ellman's reagent) are added to final concentrations of 100 μM each. The increase in color is recorded at OD405 nm in a microplate in kinetic mode over 30 minutes with 30 second time points in a spectrofluorimeter. IC50 values are calculated by non-linear regression from the percentage of inhibition of complement factor D activity as a function of test compound concentration.

In general, IC50 refers to the midpoint of a concentration-inhibition curve. Regarding `CC(=O)c1cn(CC(=O)N2C[C@H](F)C[C@H]2C(=O)Nc2nc(-c3ccccc3Cl)ns2)c2ccc(Nc3cncnc3)cc12` [Compound 29, (2S,4R)-1-(2-(3-acetyl-5-(pyrimidin-5-ylamino)-1H-indol-1-yl)acetyl)-N-(3-(2-chlorophenyl)-1,2,4-thiadiazol-5-yl)-4-fluoropyrrolidine-2-carboxamide], under setting [1], the IC50 was below 1 µM. `CC(=O)c1cn(CC(=O)N2C[C@H](F)C[C@H]2C(=O)Nc2ccccc2-n2nccc2C)c2ccc(Nc3cncnc3)cc12` [Compound 30, (2S,4R)-1-(2-(3-acetyl-5-(pyrimidin-5-ylamino)-1H-indol-1-yl)acetyl)-4-fluoro-N-(2-(5-methyl-1H-pyrazol-1-yl)phenyl)pyrrolidine-2-carboxamide]: the IC50 lay in the range of 1 to 10 µM. Turning to `CC(=O)c1cn(CC(=O)N2C[C@H](F)C[C@H]2C(=O)Nc2cccnc2)c2ccc(Nc3cncnc3)cc12` [Compound 31, (2S,4R)-1-(2-(3-acetyl-5-(pyrimidin-5-ylamino)-1H-indol-1-yl)acetyl)-4-fluoro-N-(pyridin-3-yl)pyrrolidine-2-carboxamide], under setting [1], the IC50 was below 1 µM. The same measure, in the same setting: then `CC(=O)c1cn(CC(=O)N2C[C@H](F)C[C@H]2C(=O)Nc2ccccc2-c2nc3ccccc3s2)c2ccc(Nc3cncnc3)cc12` [Compound 32, (2S,4R)-1-(2-(3-acetyl-5-(pyrimidin-5-ylamino)-1H-indol-1-yl)acetyl)-N-(2-(benzo[d]thiazol-2-yl)phenyl)-4-fluoropyrrolidine-2-carboxamide], with above 10 µM; and `CC(=O)c1cn(CC(=O)N2C[C@H](F)C[C@H]2C(=O)Nc2cncc(Cl)n2)c2ccc(Nc3cncnc3)cc12` [Compound 33, (2S,4R)-1-(2-(3-acetyl-5-(pyrimidin-5-ylamino)-1H-indol-1-yl)acetyl)-N-(6-chloropyrazin-2-yl)-4-fluoropyrrolidine-2-carboxamide], with below 1 µM. On to `CC(=O)c1cn(CC(=O)N2C[C@H](F)C[C@H]2C(=O)Nc2nnc(-c3ccccc3Cl)s2)c2ccc(Nc3cncnc3)cc12` [Compound 34, (2S,4R)-1-(2-(3-acetyl-5-(pyrimidin-5-ylamino)-1H-indol-1-yl)acetyl)-N-(5-(2-chlorophenyl)-1,3,4-thiadiazol-2-yl)-4-fluoropyrrolidine-2-carboxamide], for which the IC50 lay within 1 to 10 µM. As to `CC(=O)c1cn(CC(=O)N2C[C@H](F)C[C@H]2C(=O)Nc2cc3c(cc2F)OC(F)(F)O3)c2ccc(Nc3cncnc3)cc12` [Compound 35, (2S,4R)-1-(2-(3-acetyl-5-(pyrimidin-5-ylamino)-1H-indol-1-yl)acetyl)-4-fluoro-N-(2,2,6-trifluorobenzo[d][1,3]dioxol-5-yl)pyrrolidine-2-carboxamide], under setting [1], the IC50 was below 1 µM. With `CC(=O)c1cn(CC(=O)N2C[C@H](F)C[C@H]2C(=O)N[C@H]2CCCC[C@@H]2O)c2ccc(Nc3cncnc3)cc12` [Compound 36, (2S,4R)-1-(2-(3-acetyl-5-(pyrimidin-5-ylamino)-1H-indol-1-yl)acetyl)-4-fluoro-N-((1S,2S)-2-hydroxycyclohexyl)pyr-rolidine-2-carboxamide], the IC50 lay within 1 to 10 µM. Same read-out and setting: then `CC(=O)c1cn(CC(=O)N2C[C@H](F)C[C@H]2C(=O)Nc2cccc(Cl)c2-n2cncn2)c2ccc(Nc3cncnc3)cc12` [Compound 37, (2S,4R)-1-(2-(3-acetyl-5-(pyrimidin-5-ylamino)-1H-indol-1-yl)acetyl)-N-(3-chloro-2-(1H-1,2,4-triazol-1-yl)phenyl)-4-fluoropyrrolidine-2-carboxamide], with 1 to 10 µM. Consider `CC(=O)c1cn(CC(=O)N2C[C@H](F)C[C@H]2C(=O)Nc2ccc3[nH]c(C)c(C)c3c2)c2ccc(Nc3cncnc3)cc12` [Compound 38, (2S,4R)-1-(2-(3-acetyl-5-(pyrimidin-5-ylamino)-1H-indol-1-yl)acetyl)-N-(2,3-dimethyl-1H-indol-5-yl)-4-fluoropyrrolidine-2-carboxamide], for which the IC50 under setting [1] is below 1 µM. On the same count and under the same terms, as for `CC(=O)c1cn(C(=O)CN2C[C@H](F)C[C@H]2C(=O)Nc2nnc(-c3ccc(Cl)c(Cl)c3)s2)c2ccc(Nc3cncnc3)cc12` [Compound 39, (2S,4R)-1-(2-(3-acetyl-5-(pyrimidin-5-ylamino)-1H-indol-1-yl)-2-oxoethyl)-N-(5-(3,4-dichlorophenyl)-1,3,4-thiadiazol-2-yl)-4-fluoropyrrolidine-2-carboxamide], the figure is above 10 µM. Consider `CC(=O)c1cn(CC(=O)N2C[C@H](F)C[C@H]2C(=O)Nc2ccccc2N2CCOC2=O)c2ccc(Nc3cncnc3)cc12` [Compound 40, (2S,4R)-1-(2-(3-acetyl-5-(pyrimidin-5-ylamino)-1H-indol-1-yl)acetyl)-4-fluoro-N-(2-(2-oxooxazolidin-3-yl)phenyl)pyrrolidine-2-carboxamide], for which the IC50 lay in the range of 1 to 10 µM. Consider `CC(=O)c1cn(CC(=O)N2C[C@H](F)C[C@H]2C(=O)Nc2cc(C)nc3nc(C(F)(F)F)nn23)c2ccc(Nc3cncnc3)cc12` [Compound 41, (2S,4R)-1-(2-(3-acetyl-5-(pyrimidin-5-ylamino)-1H-indol-1-yl)acetyl)-4-fluoro-N-(5-methyl-2-(trifluoromethyl)-[1,2,4]triazolo[1,5-a]pyrimidin-7-yl)pyrrolidine-2-carboxamide], for which, under setting [1], the IC50 is above 10 µM. Same read-out and setting: then `CC(=O)c1cn(CC(=O)N2C[C@H](F)C[C@H]2C(=O)NC2CCCN(c3cnn(C)c3)C2)c2ccc(Nc3cncnc3)cc12` (stereo partly drawn) [Compound 42, (2S,4R)-1-(2-(3-acetyl-5-(pyrimidin-5-ylamino)-1H-indol-1-yl)acetyl)-4-fluoro-N-(1-(1-methyl-1H-pyrazol-4-yl)piperidin-3-yl)pyrrolidine-2-carboxamide], with below 1 µM; and `CC(=O)c1cn(CC(=O)N2C[C@H](F)C[C@H]2C(=O)NCc2cccnc2)c2ccc(Nc3cncnc3)cc12` [Compound 43, (2S,4R)-1-(2-(3-acetyl-5-(pyrimidin-5-ylamino)-1H-indol-1-yl)acetyl)-4-fluoro-N-(pyridin-3-ylmethyl)pyrrolidine-2-carboxamide], with below 1 µM; and `CC(=O)c1cn(CC(=O)N2C[C@H](F)C[C@H]2C(=O)Nc2ncc(Br)cn2)c2ccc(Nc3cncnc3)cc12` [Compound 44, (2S,4R)-1-(2-(3-acetyl-5-(pyrimidin-5-ylamino)-1H-indol-1-yl)acetyl)-N-(5-bromopyrimidin-2-yl)-4-fluoropyrrolidine-2-carboxamide], with below 1 µM. In the case of `CC(=O)c1cn(CC(=O)N2C[C@H](F)C[C@H]2C(=O)Nc2ccc(OCc3ccccc3)cn2)c2ccc(Nc3cncnc3)cc12` [Compound 45, (2S,4R)-1-(2-(3-acetyl-5-(pyrimidin-5-ylamino)-1H-indol-1-yl)acetyl)-N-(5-(benzyloxy)pyridin-2-yl)-4-fluoropyrrolidine-2-carboxamide], the 50% inhibitory concentration (IC50) under setting [1] is below 1 µM. On the same count and under the same terms, as for `CC(=O)c1cn(CC(=O)N2C[C@H](F)C[C@H]2C(=O)Nc2ccc3ccccc3c2)c2ccc(Nc3cncnc3)cc12` [Compound 46, (2S,4R)-1-(2-(3-acetyl-5-(pyrimidin-5-ylamino)-1H-indol-1-yl)acetyl)-4-fluoro-N-(naphthalen-2-yl)pyrrolidine-2-carboxamide], the figure is below 1 µM; as for `CC(=O)c1cn(CC(=O)N2C[C@H](F)C[C@H]2C(=O)Nc2cncc(Br)n2)c2ccc(Nc3cncnc3)cc12` [Compound 47, (2S,4R)-1-(2-(3-acetyl-5-(pyrimidin-5-ylamino)-1H-indol-1-yl)acetyl)-N-(6-bromopyrazin-2-yl)-4-fluoropyrrolidine-2-carboxamide], below 1 µM; as for `CC(=O)c1cn(CC(=O)N2C[C@H](F)C[C@H]2C(=O)Nc2cccc(Cl)c2C(F)(F)F)c2ccc(Nc3cncnc3)cc12` [Compound 48, (2S,4R)-1-(2-(3-acetyl-5-(pyrimidin-5-ylamino)-1H-indol-1-yl)acetyl)-N-(3-chloro-2-(trifluoromethyl)-phenyl)-4-fluoropyrrolidine-2-carboxamide], below 1 µM. As for `CC(=O)c1cn(CC(=O)N2C[C@H](F)C[C@H]2C(=O)Nc2nc(-c3c(C)nc4sccn34)cs2)c2ccc(Nc3cncnc3)cc12` [Compound 49, (2S,4R)-1-(2-(3-acetyl-5-(pyrimidin-5-ylamino)-1H-indol-1-yl)acetyl)-4-fluoro-N-(4-(6-methylimidazo[2,1-b]thiazol-5-yl)thiazol-2-yl)pyrrolidine-2-carboxamide], the 50% inhibitory concentration (IC50) lay in the range of 1 to 10 µM.

As to `CC(=O)c1cn(CC(=O)N2C[C@H](F)C[C@H]2C(=O)Nc2nc(-c3ccc4c(c3)CCCC4)cs2)c2ccc(Nc3cncnc3)cc12` [Compound 50, (2S,4R)-1-(2-(3-acetyl-5-(pyrimidin-5-ylamino)-1H-indol-1-yl)acetyl)-4-fluoro-N-(4-(5,6,7,8-tetrahydronaphthalen-2-yl)thiazol-2-yl)pyrrolidine-2-carboxamide], the IC50 under setting [1] is above 10 µM. `CC(=O)c1cn(CC(=O)N2C[C@H](F)C[C@H]2C(=O)NC2CCc3c(F)ccc(F)c32)c2ccc(Nc3cncnc3)cc12` (stereo partly drawn) [Compound 51, (2S,4R)-1-(2-(3-acetyl-5-(pyrimidin-5-ylamino)-1H-indol-1-yl)acetyl)-N-(4,7-difluoro-2,3-dihydro-1H-inden-1-yl)-4-fluoropyrrolidine-2-carboxamide] gave an IC50 of 1 to 10 µM. Same read-out and setting: then `CC(=O)c1cn(CC(=O)N2C[C@H](F)C[C@H]2C(=O)Nc2ccc(CN)cc2)c2ccc(Nc3cncnc3)cc12` [Compound 53, (2S,4R)-1-(2-(3-acetyl-5-(pyrimidin-5-ylamino)-1H-indol-1-yl)acetyl)-N-(4-(aminomethyl)phenyl)-4-fluoropyrrolidine-2-carboxamide], with 1 to 10 µM.

Consider `COc1cc(C)cc2c1OCCC2NC(=O)[C@@H]1C[C@@H](F)CN1C(=O)Cn1cc(C(C)=O)c2cc(Nc3cncnc3)ccc21` (stereo partly drawn) [Compound 54, (2S,4R)-1-(2-(3-acetyl-5-(pyrimidin-5-ylamino)-1H-indol-1-yl)acetyl)-4-fluoro-N-(8-methoxy-6-methylchroman-4-yl)pyrrolidine-2-carboxamide], for which the IC50 was 1 to 10 µM. Turning to `CC(=O)c1cn(CC(=O)N2C[C@H](F)C[C@H]2C(=O)Nc2c[nH]nc2-c2ccc(Cl)cc2Cl)c2ccc(Nc3cncnc3)cc12` [Compound 55, (2S,4R)-1-(2-(3-acetyl-5-(pyrimidin-5-ylamino)-1H-indol-1-yl)acetyl)-N-(3-(2,4-dichlorophenyl)-1H-pyrazol-4-yl)-4-fluoropyrrolidine-2-carboxamide], the IC50 lay in the range of 1 to 10 µM.
